The target of one data set is human MC1 receptor (Homo sapiens (Human), UniProt Q01726). Put plainly: Human MC receptor activation, cAMP production in cells expressing human MC1 receptor. The data set is classed as cell-based. The following applies: FreeStyle 293-F cells transiently expressing human MC1 receptor, α-MSH maximum = 100%. From the text: (§1) (1) Construction of Human MC Receptor-Expressing Vector
(§2) A human MC4 receptor gene (GenBank Accession No.: NM_005912.2), a human MC1 receptor gene (GenBank Accession No.: NM_002386.3), or a human MC3 receptor gene (GenBank Accession No.: NM_019888.3) was introduced into an expression vector pcDNA™ 3.1/V5-His TOPO (registered trademark) (Thermo Fisher Scientific Inc.).
(§3) (2) Construction of Cells Transiently Expressing Human MC Receptor
(§4) An expression vector for a human MC4, MC1, or MC3 receptor was introduced into FreeStyle™ 293-F cell (Thermo Fisher Scientific Inc., product number: R790-07). For the introduction, electroporation was employed. That is, 1×10^7 FreeStyle™ 293-F cell were suspended in 80 μL of an electroporation buffer (Thermo Fisher Scientific Inc., product number: B201-100), and 20 μg of the expression vector was added thereto. The resultant was put into a cuvette (OC-100 Processing Assembly, MaxCyte, Inc.) and electroporated with MaxCyte SIX (registered trademark) (MaxCyte, Inc.). The cells were cultured over one day, suspended in a Cell Banker (registered trademark) 1 (JUJI FIELD Inc.), product number: BLC-1), and stored frozen until their use.
(§5) (3) Measurement of Amount of cAMP Produced
(§6) Measurement was carried out by using a LANCE (registered trademark) Ultra cAMP Kit (PerkinElmer, Inc.) in accordance with the attached instructions. That is, after dissolution in DMSO, the test compound (a final concentration of 1 pM to 30 μM) diluted with an assay buffer (Hank's balanced salt solution, 5 mM 4-(2-hydroxyethyl)-1-piperazineethanesulfonic acid (HEPES), 0.5 mM 3-isobutyl-1-methylxanthine (IBMX), 0.1% bovine serum albumin, pH 7.4), or α-MSH (Bachem Inc., a final concentration of 1 pM to 30 μM) was added to OptiPlate-384 (PerkinElmer, Inc.). Furthermore, a suspension of cells transiently expressing the human MC4, MC1, or MC3 receptor prepared by using the assay buffer was added thereto at 1,000 cells/well, followed by being left to stand at room temperature for about 1 hour. Thereafter, an Eu-cAMP tracer solution and an ULight™-anti-cAMP solution were added thereto, followed by being left to stand at room temperature for about 1 hour. The amount of cAMP was calculated using EnVision (registered trademark) (PerkinElmer Inc.).
(§7) For the agonistic activity, an efficacy (EC50 (μM)) was calculated by a non-linear regression method with a Sigmoid-Emax model, by defining the maximum reaction with α-MSH as 100% and the reaction with the vehicle alone as 0%, respectively.
On the technique in general: Changes in cAMP serve as a functional read-out for many G protein-coupled receptors.

The target of another data set is human MC3 receptor (Homo sapiens (Human), UniProt P41968). Put plainly: Human MC receptor activation, cAMP production in cells expressing human MC3 receptor. The data set is classed as cell-based. The following applies: FreeStyle 293-F cells transiently expressing human MC3 receptor, α-MSH maximum = 100%.
Source text: as §1, §2, §3, §4, §5, §6, §7

Data set [1] deals with Male Sprague Dawley (SD) rats. Put plainly: Action on drug-induced voiding dysfunction model rat. The following applies: po, administered into the stomach, atropine sulfate + midodrine hydrochloride model, inhibition of decrease in voiding efficiency or increase of residual urine, P<0.05, read-out: Minimum effective dose. The data set is classed as in vivo. From the text: Male Sprague Dawley (SD) rats (Japan SLC, Inc.) were anesthetized with isoflurane and a cannula was placed in bladder, the stomach, and the jugular vein. Then, the rats were awakened in a Ballman cage (Natsume Seisakusho Co., Ltd.). After a post-operative stabilization period, physiological saline was continuously infused into the bladder by an infusion pump (Terumo Corporation, product number: TE-331S) to induce voiding. Infusion of the physiological saline was stopped at the time of voiding, and the amount of the voided urine was measured using an electronic top-loading balance placed under the Ballman cage. After completion of voiding, the residual urine was collected by gravity through the cannula placed in the bladder, and weighed, and the weight was defined as the amount of the residual urine. Further, the intravesical pressure was measured by a pressure transducer (Nihon Kohden Corporation, product numbers: TP-400, TDX-100) through the bladder cannula. The test compound or the vehicle was administered into the stomach, and atropine sulfate (Sigma-Aldrich, Inc., 0.01 mg/kg), which is an anticholinergic drug, and midodrine hydrochloride (Sigma-Aldrich, Inc., 0.3 mg/kg), which is an α1 adrenergic receptor stimulant, were administered intravenously to induce voiding dysfunctions. The voiding efficiency (=[voided amount/(voided amount+amount of residual urine)]×100) and the amount of the residual urine before and after administration of the test compound or the vehicle were measured, and the amount changed was evaluated. The value with vehicle administration and the value with the test compound administration were compared in a Dunnett's multiple comparison test with a statistically significant difference (P<0.05), and the minimum dose at which the inhibitory effect on a decrease in voiding efficiency or an increase of the amount of residual urine had been observed was defined as a minimal effective dose (3 to 12 animals per group).

In another data set the test system is Male SD rats. Put plainly: Rat erection-inducing action. The data set is classed as in vivo. The following applies: 10 mg/kg intravenously, erections up to one hour after administration, vs vehicle, P<0.05. How it is done:
Male SD rats (Charles River Laboratories Japan, Inc.) were used. A test compound (10 mg/kg) or the vehicle (20% dimethyl acetamide, 10% Cremophor (registered trademark), 70% physiological saline) was administered intravenously through the tail vein. After administration, the rats were transferred to transparent observation cages made of plastic to measure the erection times of up to one hour after administration. The measurements were carried out for five groups (3 to 7 animals per group): vehicle groups, Example compound groups (Ex 87, 88, and 89), and THIQ group, which had been known as an MC4 receptor agonist (J. Med. Chem., 45, 4589-4593 (2002)), as a positive control. For a statistical significance test, Dunnett's multiple comparison test was used for the comparison with vehicle control group, and it was determined whether there was an erection-inducing effect with a statistically significant difference (P<0.05).

The structures appear in SMILES notation. Where a name gives a salt, the structure may show the parent alone.

Consider eight compounds from US10301286B2, “Piperazine derivative” (Astellas Pharma Inc., priority 2015, dated 2019).

human MC1 receptor, sequence (Q01726 whole entry): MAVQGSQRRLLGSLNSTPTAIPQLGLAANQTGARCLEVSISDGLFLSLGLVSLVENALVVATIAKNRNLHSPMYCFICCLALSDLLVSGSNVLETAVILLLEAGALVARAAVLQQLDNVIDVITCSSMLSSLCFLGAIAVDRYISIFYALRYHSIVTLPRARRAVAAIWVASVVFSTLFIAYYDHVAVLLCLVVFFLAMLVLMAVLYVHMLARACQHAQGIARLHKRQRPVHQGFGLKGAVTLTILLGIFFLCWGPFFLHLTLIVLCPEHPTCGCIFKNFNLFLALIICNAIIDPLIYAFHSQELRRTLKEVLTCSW
human MC3 receptor, sequence (P41968 whole entry): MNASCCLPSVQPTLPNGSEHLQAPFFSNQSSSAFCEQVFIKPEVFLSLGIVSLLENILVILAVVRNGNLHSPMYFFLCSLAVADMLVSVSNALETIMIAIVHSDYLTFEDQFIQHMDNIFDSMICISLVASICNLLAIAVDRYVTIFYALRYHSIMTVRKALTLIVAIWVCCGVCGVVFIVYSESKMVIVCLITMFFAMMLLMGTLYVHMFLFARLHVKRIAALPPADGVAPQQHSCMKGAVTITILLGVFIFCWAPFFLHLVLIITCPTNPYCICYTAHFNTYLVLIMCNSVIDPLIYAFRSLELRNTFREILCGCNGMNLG

For orientation: EC50 means the concentration that produces a half-maximal response. Lower therefore signals higher potency in that assay. Take `C[C@H]1CN([C@@H](Cc2ccc3c(c2)CCC3)C(=O)O)CCN1C(=O)[C@@H]1CN(C(C)(C)C)C[C@H]1c1ccc(F)cc1F` [Example 5, (2S)-2-[(3S)-4-{[(3S,4R)-1-tert-butyl-4-(2,4-difluorophenyl)pyrrolidin-3-yl]carbonyl}-3-methylpiperazin-1-yl]-3-(2,3-dihydro-1H-inden-5-yl)propanoic acid dihydrochloride]: the values for the EC50 at human MC1 receptor and at human MC3 receptor were 1.3 µM and 4.2 µM, respectively. For the same compound, the minimal effective dose in data set [1] turned out to be 0.3 mg/kg.

As to `Cc1cc(F)c(C[C@@H](C(=O)O)N2CCN(C(=O)[C@@H]3CN(C(C)(C)C)C[C@H]3c3ccc(Cl)cc3F)[C@@H](C)C2)c(F)c1` [Example 76], the EC50 on human MC1 receptor was found to be 0.1 µM; on human MC3 receptor, 0.33 µM. Besides, in data set [1], the minimal effective dose stood at 0.03 mg/kg.

Consider `Cc1ccc(C[C@@H](C(=O)O)N2CCN(C(=O)[C@@H]3CN(C4CCOCC4)C[C@H]3c3ccc(Cl)cc3F)[C@@H](C)C2)c(F)c1` [Example 87, (2S)-2-[(3S)-4-{[(3S,4R)-4-(4-chloro-2-fluorophenyl)-1-(tetrahydro-2H-pyran-4-yl)pyrrolidin-3-yl]carbonyl}-3-methylpiperazin-1-yl]-3-(2-fluoro-4-methylphenyl)propanoic acid dihydrochloride], for which the EC50 was 1.1 µM on human MC1 receptor and 0.92 µM at human MC3 receptor. The minimal effective dose in data set [1] stood at 0.1 mg/kg. In the data set on Male SD rats, the erection-inducing effect result is on record as “did not exhibit an erection-inducing effect”.

`CCC[C@H]1CN([C@@H](Cc2ccc3ccccc3c2)C(=O)O)CCN1C(=O)[C@@H]1CN(C(C)(C)C)C[C@H]1c1ccc(F)cc1F` [Example 9]: the EC50 at human MC1 receptor came out at 0.39 µM; on human MC3 receptor it was 0.91 µM. In addition, the minimal effective dose in data set [1] turned out to be 3 mg/kg.

`Cc1cc(C)c(C[C@@H](C(=O)O)N2CCN(C(=O)[C@@H]3CN(C4CCOCC4)C[C@H]3c3ccc(Cl)cc3F)[C@@H](C)C2)c(F)c1` [Example 88]: the EC50 is 2.7 µM on human MC1 receptor and 0.88 µM on human MC3 receptor. For the same compound, in data set [1], the minimal effective dose is 0.1 mg/kg. Further, the erection-inducing effect entry in the data set with Male SD rats is listed as “did not exhibit an erection-inducing effect”.

As for `Cc1cc(C)c(C[C@@H](C(=O)O)N2CCN(C(=O)[C@@H]3CN(C(C)(C)C)C[C@H]3c3ccc(Cl)cc3F)[C@@H](C)C2)c(C)c1` [Example 89], the EC50 on human MC1 receptor is 1.3 µM; at human MC3 receptor it was 0.78 µM. In addition, the minimal effective dose in data set [1] was determined as 0.1 mg/kg. In the data set with Male SD rats, the erection-inducing effect entry was “did not exhibit an erection-inducing effect”.

Take `Cc1ccc(C[C@@H](C(=O)O)N2CCN(C(=O)[C@@H]3CN(C(C)(C)C)C[C@H]3c3ccc(Cl)cc3F)[C@@H](C)C2)cc1` [Example 11]: the results for the EC50 on human MC1 receptor and at human MC3 receptor were 0.86 µM and 3.7 µM, respectively. Moreover, the minimal effective dose in data set [1] is 0.3 mg/kg.

Turning to `Cc1ccc(C[C@@H](C(=O)O)N2CCN(C(=O)[C@@H]3CN(C(C)(C)C)C[C@H]3c3ccc(Cl)cc3F)[C@@H](C)C2)c(F)c1` [Example 4, (2S)-2-[(3S)-4-{[(3S,4R)-1-tert-butyl-4-(4-chloro-2-fluorophenyl)pyrrolidin-3-yl]carbonyl}-3-methylpiperazin-1-yl]-3-(2-fluoro-4-methylphenyl)propanoic acid dihydrochloride], the results for the EC50 at human MC1 receptor and at human MC3 receptor were 0.07 µM and 0.18 µM, respectively. For the same compound, the minimal effective dose in data set [1] worked out at 0.03 mg/kg.
